# Measurements as given in paper PMC9811530 (Experimental and Clinical Endocrinology & Diabetes, 2022).
# Entries after “also recorded” stand apart in the source; their conditions may differ. Read-outs that look alike come from different tables or passages of the source.
# Tests used:
# HPA axis = assay: Total urinary corticosteroid excretion; type: in vivo, human
# Metabolic parameters = type: in vivo, human
# [1] = human, in vivo
# [2] = cited from earlier work
# [3] = BI 187004 concentration in subcutaneous adipose tissue biopsies; conditions: gMean (%gCV); for BI 187004 AT Cday15: 24 h after last dose; for BI 187004 AT Cday2: immediately after second dose
# [4] = In vitro blood cell partitioning; type: in vitro ADME; conditions: 10 and 100 nmol/L, internal communication, data not shown
# [5] = In vitro plasma protein binding; type: in vitro ADME; conditions: internal communication, data not shown
# [6] = test system: hypothalamus-pituitary-adrenal (HPA) axis; assay: Hormones of the HPA axis; type: in vivo, human; conditions: all dose groups, during treatment
# [7] = type: in vivo, human; conditions: gMean (%gCV); for BI 187004 Plasma Cday15: 24 h after last dose; for fe0–24: Day 1; for CL/F SS / fe0–24,SS: Day 14; for BI 187004 Plasma Cday2: immediately after second dose
structure (smiles),measurement,setting,value
N#Cc1ccc2c(c1)[C@H]1CCCN(C(=O)c3ccc4[nH]cnc4c3)[C@H]1C2 [BI 187004],clinical laboratory evaluations and vital signs,Safety and tolerability; 10–360 mg over 14 days,no notable findings
same,hypoglycemic episodes,Safety and tolerability; 10–360 mg over 14 days,No hypoglycemic episodes were reported
same,intensity of AEs,Safety and tolerability; all dose groups,mild or moderate intensity
same,serious AE or death,Safety and tolerability; during the trial,No serious AE or death occurred
same,AE leading to discontinuation of treatment,"Safety and tolerability; one patient, 360 mg, day 6, drug-related, moderate intensity",supraventricular tachycardia
same,pollakiuria (AE),"Safety and tolerability; total BI 187004 group (6 patients, all 80–360 mg)",10.7%
same,gastrointestinal disorders (AE),Safety and tolerability; total BI 187004 group (9 patients),16.1%
same,nervous system disorders (only disorder: headache),Safety and tolerability; total BI 187004 group (11 patients),19.6%
same,frequency of patients reported with any AE,Safety and tolerability; total BI 187004 group (33 patients),58.9%
same,incidence of drug-related adverse events,"Safety and tolerability; total BI 187004 group, 10–360 mg once daily over 14 days (n=29)",51.8%
same,"total urinary corticosteroid excretion, % of baseline, range over dose groups",HPA axis; after 14 days of treatment,176.2–253.5%
same,total urinary corticosteroid excretion increased to,HPA axis; highest dose-group value,253.5%
same,increase in total urinary corticosteroid excretion,"HPA axis; multiple doses, 14 days",2.48 fold
same,fasting plasma glucose over the treatment period,Metabolic parameters; 14 days,not affected
same,body weight,"Metabolic parameters; baseline, day 15, end-of-trial",remained unchanged; also recorded: Changes in body weight could not be observed
same,"general disorders and administration site conditions (AE, system organ class)",[1],14.3%
same,drug-related AEs,"[2]; SRD study, healthy volunteers",16.7%
same,half-life,"[2]; single dose 5 mg, healthy volunteers",33.5 h
same,half-life,"[2]; single dose 360 mg, healthy volunteers",13.9 h
same,increase of total urinary corticosteroid excretion,[2]; single doses 2.5–360 mg,up to 2 fold
same,BI 187004 AT Cday15,[3]; 10 mg,45.5 (37.0) nmol/L
same,BI 187004 AT Cday2,[3]; 10 mg,34.5 (38.3) nmol/L
same,BI 187004 AT Cday15,[3]; 20 mg,66.1 (25.5) nmol/L
same,BI 187004 AT Cday2,[3]; 20 mg,51.8 (83.7) nmol/L
same,BI 187004 AT Cday15,[3]; 40 mg,74.2 (29.6) nmol/L
same,BI 187004 AT Cday2,[3]; 40 mg,142 (72.1) nmol/L
same,BI 187004 AT Cday15,[3]; 80 mg,140 (28.4) nmol/L
same,BI 187004 AT Cday2,[3]; 80 mg,142 (55.9) nmol/L
same,BI 187004 AT Cday15,[3]; 160 mg,238 (56.6) nmol/L
same,BI 187004 AT Cday2,[3]; 160 mg,518 (65.7) nmol/L
same,BI 187004 AT Cday15,[3]; 240 mg,245 (62.8) nmol/L
same,BI 187004 AT Cday2,[3]; 240 mg,872 (54.6) nmol/L
same,BI 187004 AT Cday15,[3]; 360 mg,454 (29.3) nmol/L
same,BI 187004 AT Cday2,[3]; 360 mg,925 (41.7) nmol/L
same,blood cell partitioning,[4],no difference in blood cell partitioning at low concentrations
same,plasma protein binding,[5],no increase in plasma protein binding down to 10 nmol/L
same,mean ACTH levels,[6],increased but within the normal range
same,BI 187004 Plasma Cday15,[7]; 10 mg,322 (37.4) nmol/L
same,fe0–24,[7]; 10 mg,5.72 (27.2) %
same,CL/F SS,[7]; 10 mg,2.01 (28.2) L/h
same,"fe0–24,SS",[7]; 10 mg,10.3 (26.6) %
same,BI 187004 Plasma Cday2,[7]; 10 mg,156 (56.1) nmol/L
same,BI 187004 Plasma Cday15,[7]; 20 mg,520 (25.6) nmol/L
same,fe0–24,[7]; 20 mg,6.14 (20.8) %
same,CL/F SS,[7]; 20 mg,2.53 (24.7) L/h
same,"fe0–24,SS",[7]; 20 mg,9.83 (24.1) %
same,BI 187004 Plasma Cday2,[7]; 20 mg,291 (23.3) nmol/L
same,BI 187004 Plasma Cday15,[7]; 40 mg,744 (25.8) nmol/L
same,fe0–24,[7]; 40 mg,3.82 (27.3) %
same,CL/F SS,[7]; 40 mg,3.16 (21.1) L/h
same,"fe0–24,SS",[7]; 40 mg,6.31 (26.7) %
same,BI 187004 Plasma Cday2,[7]; 40 mg,511 (23.9) nmol/L
same,BI 187004 Plasma Cday15,[7]; 80 mg,"1,360 (24.8) nmol/L"
same,fe0–24,[7]; 80 mg,4.15 (39.3) %
same,CL/F SS,[7]; 80 mg,3.97 (26.4) L/h
same,"fe0–24,SS",[7]; 80 mg,6.05 (27.0) %
same,BI 187004 Plasma Cday2,[7]; 80 mg,"1,020 (30.0) nmol/L"
same,BI 187004 Plasma Cday15,[7]; 160 mg,"2,430 (54.7) nmol/L"
same,fe0–24,[7]; 160 mg,5.12 (11.6) %
same,CL/F SS,[7]; 160 mg,3.69 (37.9) L/h
same,"fe0–24,SS",[7]; 160 mg,6.82 (21.6) %
same,BI 187004 Plasma Cday2,[7]; 160 mg,"1,660 (57.7) nmol/L"
same,BI 187004 Plasma Cday15,[7]; 240 mg,"2,280 (76.0) nmol/L"
same,fe0–24,[7]; 240 mg,4.87 (24.4) %
same,"fe0–24,SS",[7]; 240 mg,5.83 (22.7) %
same,BI 187004 Plasma Cday2,[7]; 240 mg,"2,420 (50.6) nmol/L"
same,BI 187004 Plasma Cday15,[7]; 360 mg,"2,780 (19.6) nmol/L"
same,fe0–24,[7]; 360 mg,5.11 (22.4) %
same,CL/F SS,[7]; 360 mg,6.47 (12.3) L/h
